Reference: patent publication US20030073681A1, “2-substituted piperidines that are ligands for monoamine receptors and transporters” (priority 2001, published 2003)

Assays:
Human NE Receptor [1] = target: T1, Human NE Receptor (Homo sapiens, UniProt P23975); test: Displacement of norephinephrine ligands in vitro (uptake profile); format: binding
Human DA Receptor [2] = target: T2, Human DA Receptor (Homo sapiens, UniProt Q01959); test: Displacement of dopamine ligands in vitro (uptake profile)
Human 5-HT Receptor [3] = target: T3, Human 5-HT Receptor (Homo sapiens, UniProt P31645); test: Displacement of serotonin ligands in vitro (uptake profile); format: binding
T3 sequence (P31645 whole entry): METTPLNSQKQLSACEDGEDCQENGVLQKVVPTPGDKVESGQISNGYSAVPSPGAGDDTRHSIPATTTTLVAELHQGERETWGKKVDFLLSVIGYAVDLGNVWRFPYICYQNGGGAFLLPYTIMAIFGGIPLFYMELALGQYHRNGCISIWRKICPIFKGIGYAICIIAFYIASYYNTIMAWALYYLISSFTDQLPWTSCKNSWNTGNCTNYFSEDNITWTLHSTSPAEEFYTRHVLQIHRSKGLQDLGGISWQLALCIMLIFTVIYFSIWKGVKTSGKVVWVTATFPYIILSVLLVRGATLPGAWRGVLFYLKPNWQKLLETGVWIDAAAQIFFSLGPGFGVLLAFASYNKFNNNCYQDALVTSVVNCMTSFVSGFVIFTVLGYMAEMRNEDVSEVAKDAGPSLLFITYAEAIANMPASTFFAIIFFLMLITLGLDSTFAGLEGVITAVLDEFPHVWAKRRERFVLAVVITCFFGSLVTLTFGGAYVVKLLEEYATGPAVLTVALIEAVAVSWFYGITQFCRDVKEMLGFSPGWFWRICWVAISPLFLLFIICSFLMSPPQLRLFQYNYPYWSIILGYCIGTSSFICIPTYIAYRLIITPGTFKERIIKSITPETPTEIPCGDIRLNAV

Human NE Receptor [4] = target: T1, Human NE Receptor; test: Functional activity for norephinephrine uptake inhibition in MDCK cell lines; format: cell-based; conditions: read-out: Functional Assays (EC50, nM) Human NE Receptor
Human 5-HT Receptor [5] = target: T3, Human 5-HT Receptor; test: Functional activity for serotonin uptake inhibition in human HEK-293 cell lines; format: cell-based; set-up: expressed in transfected cells; host or cells: HEK-293; conditions: read-out: Functional Assays (EC50, nM) Human 5-HT Receptor
Human DA Receptor [6] = target: T2, Human DA Receptor; test: Dopamine functional activity in hDAT cell line; format: cell-based; set-up: expressed in transfected cells; conditions: read-out: Functional Assays (EC50, nM) Human DA Receptor

T2 sequence (Q01959 whole entry): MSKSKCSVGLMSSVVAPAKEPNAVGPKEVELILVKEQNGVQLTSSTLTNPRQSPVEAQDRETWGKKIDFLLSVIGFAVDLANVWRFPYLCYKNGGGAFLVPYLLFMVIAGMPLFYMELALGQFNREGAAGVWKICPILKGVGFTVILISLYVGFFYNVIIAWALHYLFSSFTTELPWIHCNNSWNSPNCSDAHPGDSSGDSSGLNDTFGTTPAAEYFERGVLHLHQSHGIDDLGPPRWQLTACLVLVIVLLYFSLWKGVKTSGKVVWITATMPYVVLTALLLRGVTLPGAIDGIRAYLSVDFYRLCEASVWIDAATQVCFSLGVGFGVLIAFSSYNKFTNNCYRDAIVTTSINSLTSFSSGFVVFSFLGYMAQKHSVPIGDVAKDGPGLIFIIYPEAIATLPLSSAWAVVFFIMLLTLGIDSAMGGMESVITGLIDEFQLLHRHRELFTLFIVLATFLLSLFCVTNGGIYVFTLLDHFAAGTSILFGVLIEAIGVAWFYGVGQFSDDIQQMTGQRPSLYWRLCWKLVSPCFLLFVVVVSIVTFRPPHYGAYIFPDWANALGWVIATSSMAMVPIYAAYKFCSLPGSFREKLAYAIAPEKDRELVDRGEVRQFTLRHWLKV
T1 sequence (P23975 whole entry): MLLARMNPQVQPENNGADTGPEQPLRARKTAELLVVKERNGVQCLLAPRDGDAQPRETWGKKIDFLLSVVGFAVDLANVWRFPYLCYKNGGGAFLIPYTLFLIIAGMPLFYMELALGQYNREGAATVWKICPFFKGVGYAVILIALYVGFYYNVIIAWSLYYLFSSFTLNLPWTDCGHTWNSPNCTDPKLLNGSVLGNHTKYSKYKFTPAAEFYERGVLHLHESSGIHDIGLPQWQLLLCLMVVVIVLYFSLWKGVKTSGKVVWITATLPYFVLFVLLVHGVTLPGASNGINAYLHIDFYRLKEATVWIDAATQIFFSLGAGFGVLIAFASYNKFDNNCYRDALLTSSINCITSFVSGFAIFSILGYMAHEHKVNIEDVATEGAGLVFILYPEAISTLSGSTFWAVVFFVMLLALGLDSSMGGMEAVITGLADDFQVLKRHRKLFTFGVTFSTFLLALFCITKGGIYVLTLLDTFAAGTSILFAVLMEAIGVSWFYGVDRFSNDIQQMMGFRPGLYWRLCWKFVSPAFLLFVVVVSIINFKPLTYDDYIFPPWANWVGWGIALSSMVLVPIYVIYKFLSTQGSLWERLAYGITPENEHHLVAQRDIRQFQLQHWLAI

`FC(F)(F)c1ccc(OCCC2CCCCN2CC2(c3ccc(Cl)cc3)CCC2)cc1` (stereo not drawn) [Compound 7, 1-[1-(4-Chloro-phenyl)-cyclobutylmethyl]-2-[2-(4-trifluoromethyl-phenoxy)-ethyl]-piperidine] gave an IC50 (Human NE Receptor [1]) of under 1000 nM, an IC50 (Human DA Receptor [2]) of under 0.1 µM and an IC50 (Human 5-HT Receptor [3]) of over 1000 nM.
Work on `O[C@H](CN1CCCCC1CCOc1ccc(C(F)(F)F)cc1)C1(c2ccc(Cl)cc2)CCC1` (stereo partly drawn) [Compound 9, 1-[1-(4-Chloro-phenyl)-cyclobutyl]-2-{2-[2-(4-trifluoromethyl-phenoxy)-ethyl]-piperidin-1-yl}-S-ethanol] yielded an EC50 (Human NE Receptor [4]) of under 10 nM, an EC50 (Human 5-HT Receptor [5]) of under 100 nM and an EC50 (Human DA Receptor [6]) of under 100 nM. For the same compound, the IC50 (Human NE Receptor [1]) was under 100 nM, the IC50 (Human DA Receptor [2]) was under 0.01 µM and the IC50 (Human 5-HT Receptor [3]) was under 1000 nM.
With `CC(CN1CCCCC1CCOc1ccc(C(F)(F)F)cc1)C(=O)c1ccc(Cl)cc1` (stereo not drawn) [Compound 13, 1-(4-Chloro-phenyl)-2-methyl-3-{2-[2-(4-trifluoromethyl-phenoxy)-ethyl]-piperidin-1-yl}-propan-1-one] the IC50 (Human NE Receptor [1]) was over 1000 nM, the IC50 (Human DA Receptor [2]) was over 1 µM and the IC50 (Human 5-HT Receptor [3]) was over 1000 nM.
`CC(CN1CCCCC1CCOc1ccc(C(F)(F)F)cc1)C(O)c1ccc(Cl)cc1` (stereo not drawn) [Compound 14, 1-(4-Chloro-phenyl)-2-methyl-3-{2-[2-(4-trifluoromethyl-phenoxy)-ethyl]-piperidin-1-yl}-propan-1-ol] showed an IC50 (Human NE Receptor [1]) of under 1000 nM, an IC50 (Human DA Receptor [2]) of under 0.1 µM and an IC50 (Human 5-HT Receptor [3]) of under 1000 nM.
For `OC(CN1CCCCC1CCOc1ccc(C(F)(F)F)cc1)C1(c2ccc(Cl)c(Cl)c2)CCC1` (stereo not drawn) [Compound 18, 1-[1-(3,4-Dichloro-phenyl)-cyclobutyl]-2-{2-[2-(4-trifluoromethyl-phenoxy)-ethyl]-piperidin-1-yl}-ethanol], the IC50 (Human NE Receptor [1]) was under 100 nM, the IC50 (Human DA Receptor [2]) was under 0.01 µM and the IC50 (Human 5-HT Receptor [3]) was under 1000 nM.
In the case of `CN1CCN(CC(O)c2ccc(Cl)cc2)C(CCc2ccc(C(F)(F)F)cc2)C1` (stereo not drawn) [Compound 30, 1-(4-Chloro-phenyl)-2-{4-methyl-2-[2-(4-trifluoromethyl-phenyl)-ethyl]-piperazin-1-yl}-ethanol], the EC50 (Human NE Receptor [4]) is reported as over 1000 nM, the EC50 (Human 5-HT Receptor [5]) is reported as under 1000 nM and the EC50 (Human DA Receptor [6]) is reported as over 1000 nM.
With `O=C(CCCN1CCCCC1CCOc1ccc(C(F)(F)F)cc1)c1ccc(F)cc1` (stereo not drawn) [Compound 32, 1-(4-Fluoro-phenyl)-4-{2-[2-(4-trifluoromethyl-phenoxy)-ethyl]-piperidin-1-yl}-butan-1-one] the EC50 (Human NE Receptor [4]) was over 1000 nM, the EC50 (Human 5-HT Receptor [5]) was under 1000 nM and the EC50 (Human DA Receptor [6]) was under 1000 nM.
